Test results from patent publication US7148253B2, “4-thio coumarins” (priority 2002, dated 2006).
Where “and” joins values, the source holds several entries; their conditions need not be identical. Identical values can stand only once.

Key:
[1] = test system: HCV RNA-replicating cell line AVA5; experiment: Normalized Viral Assay; assay type: cell-based, Hepatitis C virus
Protocol: (§1) Primary in vitro anti-HCV screen. The antiviral activity of test compounds were assayed in the stably HCV RNA-replicating cell line, AVA5, derived by transfection of the human hepatoblastoma cell line, Huh7 (Blight, et al., 2000, Science 290: 1972). The test compounds were added to dividing cultures once daily for three days. The media was changed with each addition of the compounds. Cultures generally start the assay at 30–50% confluence and reach confluence during the last day of treatment.

[2] = test system: HCV replicons in AVA5 cell cultures; experiment: Secondary in vitro anti-HCV dose-response assay: intracellular HCV RNA; parameters: Intracellular HCV RNA Levels: dose or concentration left out as unconfirmed; settings: for Intracellular HCV RNA Levels: normalized to β-actin RNA; for S.I. (CC50/EC90): selectivity index, AVA5
Protocol: (§2) Dividing cultures of AVA5 cells are treated once daily for three days (media is changed with each addition of compound) with 4 concentrations of test compound (2 cultures per concentration). […] Intracellular HCV RNA levels and cytotoxicity are assessed 24 hours following the last treatment as described for the primary assays. The 50% and 90% effective antiviral concentrations (EC50, EC90) and the 50% cytotoxic concentrations (CC50) are calculated and used to generate Selectivity Indexes (S.I., CC50/EC50). An S.I of 10, or greater, may be considered to be a selective antiviral effect.
(§3) The values presented in Table 6 were calculated by linear regression analysis using data from all treated cultures. The standard deviation was calculated using the error of regression generated from the linear regression analysis.
Analysis of intracellular HCV RNA was performed 24 hours following the final treatment. A total of […] were treated a each concentration for each compound. HCV RNA levels were normalized to the level of β-actin RNA in each individual sample.

AVA5 cell line [3] = experiment: MTS Cell Viability
[4] = test system: HCV RNA in stably HCV RNA-replicating cell line AVA5; experiment: Primary in vitro anti-HCV screen: intracellular HCV RNA levels in AVA5 cells (branched DNA assay); assay type: cell-based, Hepatitis C virus; settings: for HCV % Control / HCV Copies/ml: AVA5, duplicate cultures
Protocol: as §1, with “compounds. […] Intracellular HCV RNA levels” for “compounds. Cultures generally start the assay at 30–50% confluence”, “and cytotoxicity are assessed 24 hours after” for “and reach confluence during”, “last dose” for “last day”, “of compound.” for “of treatment.”
(§4) Assays were conducted using a single dose of test compound. Duplicate cultures for HCV RNA levels (on 48-well plates) and triplicate cultures for cytotoxicity (on 96-well plates) are used.
(§5) Intracellular HCV RNA levels were measured using a commercial assay (Veresant®, Bayer Diagnostics, Inc. Ross, et al. (2002) J. Virol. Meth. 101:159–168, Quantitation of hepatitic C virus RNA by third generation branched DNA-based signal amplification assay). Cytotoxicity was measured using an established neutral red dye uptake assay (Korba, B. E. and J. L. Gerin. 1992. Use of a standardized cell culture assay to determine activities of nucleoside analogs against hepatitis B virus relication. Antivir. Res. 19:55–70). HCV RNA levels in the treated cultures are expressed as a percentage of the mean levels of RNA detected in untreated cultures. A level of 30% or less, HCV RNA relative to control cultures may be considered to be a positive antiviral effect. A level of 50% or less, neutral red dye uptake relative to control cultures may be considered to be a cytotoxic effect.

[5] = test system: AVA5 cell line (derived from human hepatoblastoma cell line Huh7); experiment: Primary screen cytotoxicity: neutral red dye uptake; assay type: cell-based; settings: for Neutral Red % Control / Neutral Red O.D.: AVA5
Protocol: as §1, §4, §5

AVA5 cell line [6] = experiment: ATP Cell Viability
AVA5 cells = experiment: Secondary dose-response assay: cytotoxicity (CC50); settings: AVA5, three days treatment; linear regression
Protocol: as §2, §3

[7] = Primary screen cytotoxicity: neutral red dye uptake; assay type: cell-based, human; settings: human; toxicity control, no antiviral activity; read-out: approximate CC90
Protocol: as §1, §4, §5

[8] = Secondary dose-response assay: cytotoxicity (CC50); settings: human
Protocol: as §2, §3

[9] = AVA5, HCV RNA, linear regression

O=c1cc(Sc2ccc(F)cc2F)c2cc(F)ccc2o1 [compound 910]
Normalized Viral Assay ([1]; 1 μM): 32.93
Normalized Viral Assay ([1]; 5 μM): 9.51
Normalized Viral Assay ([1]; 10 μM): 3.41
Intracellular HCV RNA Levels [2]; 10: 1176970 ± 27620 genomic copies/cell
Intracellular HCV RNA Levels [2]; 30: 494605 ± 6235 genomic copies/cell
Intracellular HCV RNA Levels [2]; 100: 163575 ± 6325 genomic copies/cell
Intracellular HCV RNA Levels [2]; 300: 58165 ± 7635 genomic copies/cell
EC50 [2, 9]: 1.4 ± 0.1 µM
EC90 [2, 9]: 12 ± 1.1 µM
S.I. (CC50/EC90) [2]: >214
MTS Cell Viability (AVA5 cell line [3]; 1 μM): 105.74
MTS Cell Viability (AVA5 cell line [3]; 5 μM): 92.64
MTS Cell Viability (AVA5 cell line [3]; 10 μM): 79.43
HCV % Control ([4]; 10 μM, HCV RNA as percentage of untreated cultures, listed as VQ_910): 20 % Control and 18 % Control
HCV Copies/ml ([4]; 10 μM, once daily for three days, listed as VQ_910): 266217 Copies/ml and 246717 Copies/ml
Neutral Red % Control ([5]; 10 μM, dye uptake relative to untreated cultures, listed as VQ_910): 99 % Control and 103 % Control
Neutral Red O.D. ([5]; 10 μM, listed as VQ_910): 2.214 O.D. and 2.293 O.D.
ATP Cell Viability (AVA5 cell line [6]; 1 μM): 115.34
ATP Cell Viability (AVA5 cell line [6]; 5 μM): 97.48
ATP Cell Viability (AVA5 cell line [6]; 10 μM): 84.78
CC50 (AVA5 cells): > 300 µM

O=c1cc(Sc2c(Cl)cccc2Cl)c2cc(F)ccc2o1 [compound 902]
Normalized Viral Assay ([1]; 1 μM): 41.92
Normalized Viral Assay ([1]; 5 μM): 12.03
Normalized Viral Assay ([1]; 10 μM): 5.61
Intracellular HCV RNA Levels [2]; 10: 919880 ± 44000 genomic copies/cell
Intracellular HCV RNA Levels [2]; 30: 332975 ± 6745 genomic copies/cell
Intracellular HCV RNA Levels [2]; 100: 91645 ± 7385 genomic copies/cell
Intracellular HCV RNA Levels [2]; 300: 12940 ± 5640 genomic copies/cell
EC50 [2, 9]: 0.491 ± 0.024 µM
EC90 [2, 9]: 5.2 ± 0.6 µM
S.I. (CC50/EC90) [2]: >611
MTS Cell Viability (AVA5 cell line [3]; 1 μM): 116.05
MTS Cell Viability (AVA5 cell line [3]; 5 μM): 86.70
MTS Cell Viability (AVA5 cell line [3]; 10 μM): 84.52
HCV % Control ([4]; 10 μM, HCV RNA as percentage of untreated cultures, listed as VQ_902): 9 % Control and 7 % Control
HCV Copies/ml ([4]; 10 μM, once daily for three days, listed as VQ_902): 124712 Copies/ml and 92446 Copies/ml
Neutral Red % Control ([5]; 10 μM, dye uptake relative to untreated cultures, listed as VQ_902): 95 % Control and 100 % Control
Neutral Red O.D. ([5]; 10 μM, listed as VQ_902): 2.122 O.D. and 2.228 O.D.
ATP Cell Viability (AVA5 cell line [6]; 1 μM): 97.96
ATP Cell Viability (AVA5 cell line [6]; 5 μM): 101.74
ATP Cell Viability (AVA5 cell line [6]; 10 μM): 62.95
CC50 (AVA5 cells): > 300 µM

NC(=O)c1ncn([C@@H]2O[C@H](CO)[C@@H](O)[C@H]2O)n1 [Ribavirin, ribavirin, reference compound]
Intracellular HCV RNA Levels [2]; 10: 1379495 ± 69125 genomic copies/cell
Intracellular HCV RNA Levels [2]; 30: 640505 ± 29715 genomic copies/cell
Intracellular HCV RNA Levels [2]; 100: 250445 ± 5015 genomic copies/cell
EC50 ([2]; Hepatitis C virus, Ava5): 29 ± 2.5 µM
EC90 ([2]; Hepatitis C virus, Ava5): 140 ± 11 µM
S.I. (CC50/EC90) [2]: 1.9
HCV % Control ([4]; 100 μM): 13 % Control and 9 % Control
HCV Copies/ml ([4]; 100 μM): 180813 Copies/ml and 115331 Copies/ml
effect on HCV RNA (treatment controls, in words) ([4]; at the control concentrations used): induced loss of HCV RNA
CC90 at 3 days [7]: ~100 µM
Neutral Red % Control ([5]; 100 μM): 18 % Control and 17 % Control
Neutral Red O.D. ([5]; 100 μM): 0.394 O.D. and 0.378 O.D.
effect on cell viability (treatment control, in words) ([5]; compared with the loss of HCV RNA): reduction in cell viability was nearly equivalent
CC50 at 3 days [8]: 54 ± 2.4 µM
